The assay relates to asymmetric di-methyl PABP1 in RKO cells. Description: RKO methylation assay, In Cell Western (ICW) for asymmetric di-methyl PABP1. In kind it is cell-based. The conditions noted are these: Homo sapiens, RKO, Cellular potencies, ICW PABP1me2a. The text has this:
RKO adherent cells were purchased from ATCC (American Type Culture Collection), Manassas, Va., USA. DMEM/Glutamax medium, penicillin-streptomycin, heat inactivated fetal bovine serum, 0.05% trypsin and D-PBS were purchased from Life Technologies, Grand Island, N.Y., USA. Odyssey blocking buffer, 800 CW goat anti-rabbit IgG (H+L) antibody, and Licor Odyssey infrared scanner were purchased from Licor Biosciences, Lincoln, Nebr., USA. Asymmetric di-methyl PABP1 antibody was purchased from Cell Signaling Technology, Danvers, Mass., USA. Methanol was purchased from VWR, Franklin, Mass., USA. 10% Tween 20 was purchased from KPL, Inc., Gaithersburg, Md., USA. Paraformaldehyde (PFA) was purchased from EM Sciences. DRAQ5 was purchased from Biostatus Limited, Leicestershire, UK.
RKO adherent cells were maintained in growth medium (DMEM/Glutamax medium supplemented with 10% v/v heat inactivated fetal bovine serum and 100 units/mL penicillin-streptomycin) and cultured at 37° C. under 5% CO2.
Cell treatment, In Cell Western (ICW) for detection of asymmetric di-methyl PABP1 and DNA content: RKO cells were seeded in assay medium at a concentration of 30,000 cells per mL to a poly-D-lysine coated 384 well culture plate (BD Biosciences 356697) with 50 VL per well. Compound (100 nL) from a 96-well source plate was added directly to 384 well cell plate. Plates were incubated at 37° C., 5% CO2 for 48 hours. After two days of incubation, plates were brought to room temperature outside of the incubator for ten minutes and blotted on paper towels to remove cell media. Cells were fixed for 20 minutes at room temperature by adding 50 ul of 8% PFA followed by aspiration of supernatant with the Biotek EL406 plate washer. Cells were then permeabilized by addition of 50 μL of ice cold 100% methanol directly to each well and incubated for 30 min at room temperature. After 30 min, plates were transferred to a Biotek EL406 plate washer and washed 2 times with 100 μL per well of wash buffer (1×PBS). Next 60 μL per well of Odyssey blocking buffer (Odyssey Buffer with 0.1% Tween 20 (v/v)) were added to each plate and incubated 1 hour at room temperature. Blocking buffer was removed and 20 μL per well of primary antibody was added (asymmetric-methyl PABP1) diluted 1:400 in Odyssey buffer with 0.1% Tween 20 (v/v)) and plates were incubated overnight (16 hours) at 4° C. Plates were washed 5 times with 100 μL per well of wash buffer. Next 20 μL per well of secondary antibody was added (1:800 800 CW goat anti-rabbit IgG (H+L) antibody, 1:2000 DRAQ5 in Odyssey buffer with 0.1% Tween 20 (v/v)) and incubated for 1 hour at room temperature. The plates were washed 5 times with 100 μL per well wash buffer then 2 times with 100 μL per well of water. Plates were allowed to dry at room temperature then imaged on the Licor Odyssey machine which measures integrated intensity at 700 nm and 800 nm wavelengths. Both 700 and 800 channels were scanned.
First, the ratio for each well was determined by:
Each plate included fourteen control wells of DMSO only treatment (minimum inhibition) as well as fourteen control wells for maximum inhibition treated with 20 μM of a reference compound. The average of the ratio values for each control type was calculated and used to determine the percent […] for each test well in the plate. Reference compound was serially diluted three-fold in DMSO for a total of nine test concentrations, beginning at 20 μM.
Percent inhibition was determined and IC50 curves were generated using triplicate wells per concentration of compound. […]
As usually defined, the IC50 is the concentration that inhibits the measured activity by half. High values mean weaker potency in that assay, low ones greater potency in that assay. Take `CNCC(O)COc1cccc(-c2nc(NC3(CO)CC3)c(C)c(-c3c(C)noc3C)n2)c1` (stereo not drawn) [Example 5-3]: the IC50 was 5 to 10 µM. `CCOC(=O)N1CCC[C@@H]1CNc1nc(-c2cc(OC[C@@H](O)CNC)ccc2Cl)nc(-c2c(C)noc2C)c1C` [Example 49-3] gave a 50% inhibitory concentration (IC50) of less than 5 µM. The same measure for `CNC[C@@H](O)COc1ccc(Cl)c(-c2nc(OC[C@H]3CCOC3)c(C)c(-c3c(C)noc3C)n2)c1` [Example 117-3]: less than 5 µM; for `CNCC(O)COc1cccc(-c2nc(-c3c(C)noc3C)cc(N3CCN(C(C)=O)[C@@H](C)C3)n2)c1` (stereo partly drawn) [Example 38-1a]: 5 to 10 µM. Take `CNC[C@H](O)COc1ccc(Cl)c(-c2nc(N[C@H]3C[C@H](OC)C3)c(C)c(-c3c(C)noc3C)n2)c1` [Example 53-3]: the IC50 is less than 5 µM.

Compound `CNC[C@@H](O)COc1ccc(Cl)c(-c2nc(N[C@H]3CCN(C4CC4)[C@@H](C)C3)c(C)c(-c3c(C)noc3C)n2)c1` [Example 170-3] registered a half-maximal inhibitory concentration (IC50) of less than 5 µM.

Compound `CNCC(O)COc1cccc(-c2nc(N[C@@H]3CCOC[C@@H]3OC)c(C)c(-c3c(C)noc3C)n2)c1` (stereo partly drawn) [Example 220-1a] had an IC50 of less than 5 µM. The same measure for `CNCC(O)COc1cccc(-c2nc(-c3c(C)noc3C)cc(N(CCOC)C3CCOCC3)n2)c1` (stereo not drawn) [Example 98-1a]: less than 5 µM; for `CNCC(O)COc1cccc(-c2nc(N(C)C3CCOCC3)cc(-n3cccn3)n2)c1` (stereo not drawn) [Example 542-1a]: 10 to 20 µM; for `CNCC(O)COc1cccc(-c2nc(N[C@@H]3CCN(C4CC4)C[C@H]3F)c(C)c(-c3c(C)noc3C)n2)c1` (stereo partly drawn) [Example 261-1a]: less than 5 µM. As to `CNC[C@@H](O)COc1ccc(Cl)c(-c2nc(NC[C@@H]3CCOC3)c(C)c(-c3c(C)noc3C)n2)c1` [Example 228-3], the IC50 was less than 5 µM. In the case of `CNCC(O)COc1cccc(-c2nc(NC3C[C@H]4CC[C@@H](C3)N4C(=O)OC)c(C)c(-c3c(C)noc3C)n2)c1` (stereo partly drawn) [Example 242-1a], the IC50 was less than 5 µM. For `CNCC(O)COc1cccc(-c2nc(-c3c(C)noc3C)c(C)c(N3CCO[C@H](CN(C)C)C3)n2)c1` (stereo partly drawn) [Example 151-1a], the IC50 was less than 5 µM. As to `CNCC(O)COc1cccc(-c2nc(-c3c(C)noc3C)c(C)c(N3CCO[C@H](CN(C)S(C)(=O)=O)C3)n2)c1` (stereo partly drawn) [Example 126-1a], the IC50 lay within 5 to 10 µM.

`CNCC(O)COc1cccc(-c2nc(-c3c[nH]c4ncncc34)cc(N(C)C3CCOCC3)n2)c1` (stereo not drawn) [Example 504-1a] came in with an IC50 of less than 5 µM. `CNCC(O)COc1cccc(-c2nc(N[C@@H]3CCC[C@@H]3O)c(C)c(-c3c(C)noc3C)n2)c1` (stereo partly drawn) [Example 250-1a] displayed an IC50 of less than 5 µM. Consider `CNCC(O)COc1cccc(-c2nc(NC3CCN(C(=O)OC)CC3)cc(-c3c(C)noc3C)n2)c1` (stereo not drawn) [Example 102-1a], for which the half-inhibitory concentration (IC50) was less than 5 µM.

As for `CNC[C@@H](O)COc1ccc(Cl)c(-c2nc(N[C@@H]3CCOC3)c(C)c(-c3c(C)noc3C)n2)c1` [Example 100-3], the IC50 was less than 5 µM. `CCC1(CNc2nc(-c3cccc(OCC(O)CNC)c3)nc(-c3c(C)noc3C)c2C)CCOCC1` (stereo not drawn) [Example 141-1a]: the IC50 is less than 5 µM.

`CNCC(O)COc1cccc(-c2nc(N[C@@H]3CCOC3)c(C)c(N3CCn4ccnc4C3)n2)c1` (stereo partly drawn) [Example 359-1a] registered an IC50 of 10 to 20 µM.

Compound `CNCC(O)COc1cccc(-c2nc(N[C@@H]3CCOC3)cc(-c3c(C)noc3C)n2)c1` (stereo partly drawn) [Example 11-1a] showed an IC50 of 5 to 10 µM.

As to `CNCC(O)COc1cccc(-c2nc(-c3c(C)noc3C)c(C)c(N3CC[C@H](N(C)C(C)=O)C3)n2)c1` (stereo partly drawn) [Example 71-1a], the IC50 was less than 5 µM. The figure for `CCOC(=O)N1CCOC[C@H]1CNc1nc(-c2cc(OC[C@H](O)CNC)ccc2Cl)nc(-c2c(C)noc2C)c1C` [Example 25-3] is less than 5 µM. Compound `CNCC(O)COc1cccc(-c2nc(N[C@H]3CCOC3)cc(-c3c(C)noc3C)n2)c1` (stereo partly drawn) [Example 13-1a] returned a 50% inhibitory concentration (IC50) of 5 to 10 µM. `CCS(=O)(=O)N1CCN(c2nc(-c3cccc(OCC(O)CNC)c3)nc(N[C@@H]3CCOC3)c2C)CC1` (stereo partly drawn) [Example 464-1a] registered an IC50 of less than 5 µM. The same measure for `CNCC(O)COc1cccc(-c2nc(NC3CC(C(=O)OC)C3)cc(-c3c(C)noc3C)n2)c1` (stereo not drawn) [Example 45-1a]: less than 5 µM; for `CNCC(O)COc1cccc(-c2nc(N[C@H]3CC[C@H](OC)C3)c(C)c(-c3c(C)noc3C)n2)c1` (stereo partly drawn) [Example 234-1a]: less than 5 µM.

Take `CNC[C@H](O)COc1ccc(Cl)c(-c2nc(N[C@H]3CCN(C4CC4)C[C@H]3F)c(C)c(-c3c(C)noc3C)n2)c1` [Example 43-3]: the IC50 was less than 5 µM.

The compound `CCS(=O)(=O)N1CCOC[C@@H]1CNc1nc(-c2cccc(OCC(O)CNC)c2)nc(-c2c(C)noc2C)c1C` (stereo partly drawn) [Example 230-1a] came in with an IC50 of less than 5 µM. Compound `CNCC(O)COc1cccc(-c2nc(-c3c(C)noc3C)c(C)c(N3CC(CO)(CNC(=O)N(C)C)C3)n2)c1` (stereo not drawn) [Example 298-1a] displayed a half-inhibitory concentration (IC50) of 10 to 20 µM. The compound `CNCC(O)COc1cccc(-c2nc(N3CCOCC3)c(F)c(N(C)C3CCOCC3)n2)c1` (stereo not drawn) [Example 500-1a] came in with an IC50 of less than 5 µM. Compound `CNC[C@@H](O)COc1ccc(Cl)c(-c2nc(N[C@H]3COC[C@@H]3O)c(C)c(-c3c(C)noc3C)n2)c1` [Example 209-3] registered an IC50 of less than 5 µM. The compound `CNCC(O)COc1cccc(-c2nc(-c3c(C)noc3C)c(C)c(N(C)C3CCN(C(=O)OC)CC3)n2)c1` (stereo not drawn) [Example 89-1a] gave an IC50 of less than 5 µM. For the compound `CCOC(=O)N1CCCC[C@@H]1CNc1nc(-c2cc(OC[C@H](O)CNC)ccc2Cl)nc(-c2c(C)noc2C)c1Cl` [Example 153-3], the IC50 is less than 5 µM. As for `CNC[C@@H](O)COc1ccc(Cl)c(-c2nc(N[C@H]3CCO[C@H](C)C3)c(C)c(-c3c(C)noc3C)n2)c1` [Example 196-3], the IC50 is less than 5 µM. The compound `CNCC(O)COc1cccc(-c2nc(N[C@@H]3CCOC3)c(C)c(N3CCOCC3)n2)c1` (stereo partly drawn) [Example 3-1] yielded an IC50 of 5 to 10 µM.

`CNCC(O)COc1cccc(-c2nc(-c3cnc4c(C(=O)OC)cnn4c3)cc(N(C)C3CCOCC3)n2)c1` (stereo not drawn) [Example 482-1a] registered a 50% inhibitory concentration (IC50) of less than 5 µM. For `CCO[C@@H]1CCC[C@H]1N(CC)c1nc(-c2cc(OC[C@H](O)CNC)ccc2Cl)nc(-c2c(C)noc2C)c1C` [Example 241-3], the IC50 is less than 5 µM.

As for `CNCC(O)COc1cccc(-c2nc(N[C@H]3C[C@@](C)(O)C3)cc(-c3c(C)noc3C)n2)c1` (stereo partly drawn) [Example 67-1a], the IC50 lay in the range of 10 to 20 µM. In turn, `CNCC(O)COc1cccc(-c2nc(N3CCN(C)C(=O)C3)cc(N(C)C3CCOCC3)n2)c1` (stereo not drawn) [Example 549-1a] displayed a concentration for half-maximal inhibition (IC50) of 10 to 20 µM.

As for `CNC[C@@H](O)COc1ccc(Cl)c(-c2nc(-c3c(C)noc3C)c(C)c(N3Cc4cc(Br)cnc4C3)n2)c1` [Example 248-3], the IC50 was less than 5 µM. For the compound `CNCC(O)COc1cc(Cl)cc(-c2nc(C(=O)N(C)CC3CCOCC3)cc(N(C)C3CCOCC3)n2)c1` (stereo not drawn) [Example 577-1a], the IC50 was 10 to 20 µM. Consider `CNCC(O)COc1cccc(-c2nc(N[C@H]3CCOC3=O)c(C)c(-c3c(C)noc3C)n2)c1` (stereo partly drawn) [Example 281-1a], for which the half-maximal inhibitory concentration (IC50) was in the range of 10 to 20 µM. `CNCC(O)COc1cccc(-c2nc(NC3CCCN(S(C)(=O)=O)C3)c(C)c(-c3c(C)noc3C)n2)c1` (stereo not drawn) [Example 198-1a]: the IC50 is less than 5 µM. `CNCC(O)COc1cccc(-c2nc(-c3c(C)noc3C)cc(N3CCN(CCF)CC3)n2)c1` (stereo not drawn) [Example 68-1a] returned an IC50 of 5 to 10 µM.
